Test results reported in PubChem BioAssay (NCI).
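GI50: concentration for 50% inhibition of growth. TGI: concentration producing complete growth inhibition.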

Assays:
Test in all cases: DTP human tumour cell line panel, 384-well format
786-0 renal = tested on: 786-0 renal
A498 renal = tested on: A498 renal
A549 NSCLC = tested on: A549 NSCLC
ACHN renal = tested on: ACHN renal
BT-549 breast = tested on: BT-549 breast
CAKI-1 renal = tested on: CAKI-1 renal
CCRF-CEM leukemia = tested on: CCRF-CEM leukemia
COLO 205 colon = tested on: COLO 205 colon
DU-145 prostate = tested on: DU-145 prostate
EKVX NSCLC = tested on: EKVX NSCLC
HCC-2998 colon = tested on: HCC-2998 colon
HCT-15 colon = tested on: HCT-15 colon
HL-60(TB) leukemia = tested on: HL-60(TB) leukemia
HOP-62 NSCLC = tested on: HOP-62 NSCLC
HOP-92 NSCLC = tested on: HOP-92 NSCLC
HS 578T breast = tested on: HS 578T breast
HT29 colon = tested on: HT29 colon
IGROV1 ovarian = tested on: IGROV1 ovarian
K-562 leukemia = tested on: K-562 leukemia
KM12 colon = tested on: KM12 colon
LOX IMVI melanoma = tested on: LOX IMVI melanoma
M14 melanoma = tested on: M14 melanoma
MALME-3M melanoma = tested on: MALME-3M melanoma
MCF7 breast = tested on: MCF7 breast
MDA-MB-231 breast = tested on: MDA-MB-231 breast
MDA-MB-435 melanoma = tested on: MDA-MB-435 melanoma
MDA-MB-468 breast = tested on: MDA-MB-468 breast
MOLT-4 leukemia = tested on: MOLT-4 leukemia
NCI-H226 lung = tested on: NCI-H226 lung
NCI-H23 lung = tested on: NCI-H23 lung
NCI-H322M lung = tested on: NCI-H322M lung
NCI-H460 NSCLC = tested on: NCI-H460 NSCLC
NCI-H522 lung = tested on: NCI-H522 lung
NCI/ADR-RES ovarian = tested on: NCI/ADR-RES ovarian
OVCAR-3 ovarian = tested on: OVCAR-3 ovarian
OVCAR-4 ovarian = tested on: OVCAR-4 ovarian
OVCAR-5 ovarian = tested on: OVCAR-5 ovarian
OVCAR-8 ovarian = tested on: OVCAR-8 ovarian
PC-3 prostate = tested on: PC-3 prostate
RPMI-8226 leukemia = tested on: RPMI-8226 leukemia
RXF 393 renal = tested on: RXF 393 renal
SF-268 CNS = tested on: SF-268 CNS
SF-295 CNS = tested on: SF-295 CNS
SF-539 CNS = tested on: SF-539 CNS
SK-MEL-28 melanoma = tested on: SK-MEL-28 melanoma
SK-MEL-5 melanoma = tested on: SK-MEL-5 melanoma
SK-OV-3 ovarian = tested on: SK-OV-3 ovarian
SN12C renal = tested on: SN12C renal
SNB-19 CNS = tested on: SNB-19 CNS
SNB-75 CNS = tested on: SNB-75 CNS
SR leukemia = tested on: SR leukemia
SW-620 colon = tested on: SW-620 colon
T-47D breast = tested on: T-47D breast
TK-10 renal = tested on: TK-10 renal
U251 glioblastoma = tested on: U251 glioblastoma
UACC-257 melanoma = tested on: UACC-257 melanoma
UACC-62 melanoma = tested on: UACC-62 melanoma
UO-31 renal = tested on: UO-31 renal

Q: For `O=C(Nc1ccc(OC(F)(F)F)cc1)c1sccc1NCc1ccnc2ccccc12`, which GI50 ([…]-0 renal) is on record?
A: 4.38 µM

Q: What about the TGI (786-0 renal) of the same compound?
A: 15.6 µM

Q: What about the GI50 (A498 renal) of the same compound?
A: 2.57 µM

Q: And the TGI (A498 renal)?
A: 12.8 µM

Q: What about the GI50 (A549 NSCLC) of the same compound?
A: 4.5 µM

Q: And the TGI (A549 NSCLC)?
A: 52.5 µM

Q: And the GI50 (ACHN renal)?
A: 3.39 µM

Q: What about the TGI (ACHN renal) of the same compound?
A: 20.7 µM

Q: And the GI50 (BT-549 breast)?
A: 5.78 µM

Q: And the TGI (BT-549 breast)?
A: 17.7 µM

Q: And the GI50 (CAKI-1 renal)?
A: 3.2 µM

Q: And the TGI (CAKI-1 renal)?
A: 14.8 µM

Q: What about the GI50 (CCRF-CEM leukemia) of the same compound?
A: 2.03 µM

Q: What about the TGI (CCRF-CEM leukemia) of the same compound?
A: 4.44 µM

Q: What about the GI50 (COLO 205 colon) of the same compound?
A: 4.4 µM

Q: What about the TGI (COLO 205 colon) of the same compound?
A: 22.8 µM

Q: And the GI50 (DU-145 prostate)?
A: 4.94 µM

Q: And the TGI (DU-145 prostate)?
A: > 100 µM

Q: And the GI50 (EKVX NSCLC)?
A: 3.43 µM

Q: What about the TGI (EKVX NSCLC) of the same compound?
A: 19.9 µM

Q: What about the GI50 (HCC-2998 colon) of the same compound?
A: 4.65 µM

Q: And the TGI (HCC-2998 colon)?
A: 12 µM

Q: What about the GI50 (HCT-15 colon) of the same compound?
A: 3.55 µM

Q: And the TGI (HCT-15 colon)?
A: 10.9 µM

Q: And the GI50 (HL-60(TB) leukemia)?
A: 1.69 µM

Q: And the TGI (HL-60(TB) leukemia)?
A: 3.17 µM

Q: What about the GI50 (HOP-62 NSCLC) of the same compound?
A: 8.26 µM

Q: And the TGI (HOP-62 NSCLC)?
A: 71.6 µM

Q: And the GI50 (HOP-92 NSCLC)?
A: 3.99 µM

Q: What about the TGI (HOP-92 NSCLC) of the same compound?
A: 15.7 µM

Q: And the GI50 (HS 578T breast)?
A: 2.66 µM

Q: And the TGI (HS 578T breast)?
A: 8.81 µM

Q: And the GI50 (HT29 colon)?
A: 4.31 µM

Q: And the TGI (HT29 colon)?
A: 17.1 µM

Q: And the GI50 (IGROV1 ovarian)?
A: 2.47 µM

Q: What about the TGI (IGROV1 ovarian) of the same compound?
A: 6.72 µM

Q: And the GI50 (K-562 leukemia)?
A: 1.75 µM

Q: And the TGI (K-562 leukemia)?
A: 3.66 µM

Q: And the GI50 (KM12 colon)?
A: 3.74 µM

Q: And the TGI (KM12 colon)?
A: 15.9 µM

Q: And the GI50 (LOX IMVI melanoma)?
A: 3.48 µM

Q: What about the TGI (LOX IMVI melanoma) of the same compound?
A: 10.6 µM

Q: And the GI50 (M14 melanoma)?
A: 3.56 µM

Q: What about the TGI (M14 melanoma) of the same compound?
A: 14.3 µM

Q: What about the GI50 (MALME-3M melanoma) of the same compound?
A: 1.73 µM

Q: And the TGI (MALME-3M melanoma)?
A: 8.96 µM

Q: What about the GI50 (MCF7 breast) of the same compound?
A: 3.24 µM

Q: And the TGI (MCF7 breast)?
A: 15.9 µM

Q: And the GI50 (MDA-MB-231 breast)?
A: 1.9 µM

Q: What about the TGI (MDA-MB-231 breast) of the same compound?
A: 15.2 µM

Q: What about the GI50 (MDA-MB-435 melanoma) of the same compound?
A: 4.65 µM

Q: What about the TGI (MDA-MB-435 melanoma) of the same compound?
A: 21.7 µM

Q: What about the GI50 (MDA-MB-468 breast) of the same compound?
A: 2.06 µM

Q: And the TGI (MDA-MB-468 breast)?
A: 5.16 µM

Q: What about the GI50 (MOLT-4 leukemia) of the same compound?
A: 1.93 µM

Q: And the TGI (MOLT-4 leukemia)?
A: 3.56 µM

Q: What about the GI50 (NCI-H226 lung) of the same compound?
A: 4.4 µM

Q: What about the TGI (NCI-H226 lung) of the same compound?
A: 19 µM

Q: What about the GI50 (NCI-H23 lung) of the same compound?
A: 2.39 µM

Q: What about the TGI (NCI-H23 lung) of the same compound?
A: 8.57 µM

Q: What about the GI50 (NCI-H322M lung) of the same compound?
A: 4.43 µM

Q: What about the TGI (NCI-H322M lung) of the same compound?
A: 40.4 µM

Q: What about the GI50 (NCI-H460 NSCLC) of the same compound?
A: 2.93 µM

Q: And the TGI (NCI-H460 NSCLC)?
A: 10.6 µM

Q: What about the GI50 (NCI-H522 lung) of the same compound?
A: 2.96 µM

Q: What about the TGI (NCI-H522 lung) of the same compound?
A: 11.6 µM

Q: What about the GI50 (NCI/ADR-RES ovarian) of the same compound?
A: 2.8 µM

Q: And the TGI (NCI/ADR-RES ovarian)?
A: 8.9 µM

Q: And the GI50 (OVCAR-3 ovarian)?
A: 5.25 µM

Q: And the TGI (OVCAR-3 ovarian)?
A: 19.6 µM

Q: What about the GI50 (OVCAR-4 ovarian) of the same compound?
A: 4.43 µM

Q: And the TGI (OVCAR-4 ovarian)?
A: 19.6 µM

Q: And the GI50 (OVCAR-5 ovarian)?
A: 8.44 µM

Q: What about the TGI (OVCAR-5 ovarian) of the same compound?
A: 43.8 µM

Q: What about the GI50 (OVCAR-8 ovarian) of the same compound?
A: 3.99 µM

Q: And the TGI (OVCAR-8 ovarian)?
A: 16.2 µM

Q: And the GI50 (PC-3 prostate)?
A: 4.56 µM

Q: And the TGI (PC-3 prostate)?
A: 25.7 µM

Q: What about the GI50 (RPMI-8226 leukemia) of the same compound?
A: 2.06 µM

Q: And the TGI (RPMI-8226 leukemia)?
A: 4.59 µM

Q: And the GI50 (RXF 393 renal)?
A: 2.97 µM

Q: What about the TGI (RXF 393 renal) of the same compound?
A: 14.3 µM

Q: What about the GI50 (SF-268 CNS) of the same compound?
A: 6.24 µM

Q: What about the TGI (SF-268 CNS) of the same compound?
A: 32 µM

Q: What about the GI50 (SF-295 CNS) of the same compound?
A: 3.9 µM

Q: What about the TGI (SF-295 CNS) of the same compound?
A: 19 µM

Q: What about the GI50 (SF-539 CNS) of the same compound?
A: 5.11 µM

Q: What about the TGI (SF-539 CNS) of the same compound?
A: 19.8 µM

Q: And the GI50 (SK-MEL-28 melanoma)?
A: 5.71 µM

Q: What about the TGI (SK-MEL-28 melanoma) of the same compound?
A: 35.2 µM

Q: What about the GI50 (SK-MEL-5 melanoma) of the same compound?
A: 1.66 µM

Q: What about the TGI (SK-MEL-5 melanoma) of the same compound?
A: 3.41 µM

Q: And the GI50 (SK-OV-3 ovarian)?
A: 2.97 µM

Q: What about the TGI (SK-OV-3 ovarian) of the same compound?
A: 9.49 µM

Q: What about the GI50 (SN12C renal) of the same compound?
A: 3.82 µM

Q: And the TGI (SN12C renal)?
A: 24.8 µM

Q: What about the GI50 (SNB-19 CNS) of the same compound?
A: 11.9 µM

Q: What about the TGI (SNB-19 CNS) of the same compound?
A: > 100 µM

Q: And the GI50 (SNB-75 CNS)?
A: 5.09 µM

Q: What about the TGI (SNB-75 CNS) of the same compound?
A: 51.6 µM

Q: What about the GI50 (SR leukemia) of the same compound?
A: 1.81 µM

Q: And the TGI (SR leukemia)?
A: 4.06 µM

Q: And the GI50 (SW-620 colon)?
A: 6.31 µM

Q: What about the TGI (SW-620 colon) of the same compound?
A: 23 µM

Q: What about the GI50 (T-47D breast) of the same compound?
A: 2.03 µM

Q: What about the TGI (T-47D breast) of the same compound?
A: 6.57 µM

Q: What about the GI50 (TK-10 renal) of the same compound?
A: 11 µM

Q: What about the TGI (TK-10 renal) of the same compound?
A: 65 µM

Q: What about the GI50 (U251 glioblastoma) of the same compound?
A: 11.8 µM

Q: What about the TGI (U251 glioblastoma) of the same compound?
A: > 100 µM

Q: And the GI50 (UACC-257 melanoma)?
A: 3.51 µM

Q: What about the TGI (UACC-257 melanoma) of the same compound?
A: 13.6 µM

Q: And the GI50 (UACC-62 melanoma)?
A: 2.76 µM

Q: What about the TGI (UACC-62 melanoma) of the same compound?
A: 14.3 µM

Q: What about the GI50 (UO-31 renal) of the same compound?
A: 8.23 µM

Q: And the TGI (UO-31 renal)?
A: > 100 µM
